Ends that are not written are not given here.
Tests used:
[1] = system: monosodium glutamate-induced excitotoxic lesions of the retina; settings: intravitreal injection; cited from earlier work
Source text: (§1) VIP, the peptide with the closest structural similarity ...

retinoblastoma cells = settings: high concentrations; cited from earlier work
Source text: (§2) Our present study, together with the previous study on PACAP1-27, highlights the potential therapeutic use of PACAP in the form of eye drops to treat retinal diseases. The novelty of our present results is that PACAP1-38, the most commonly occurring form of the peptide, exerts a retinoprotective effect similarly to PACAP1-27. Although most actions of PACAP1-27 and PACAP1-38 are similar or the same, several differences are also known. In most studies, PACAP1-27 binds to the receptors with less affinity, leading to less well-pronounced effects at the same concentration as PACAP1-38 [6, 36]. T ...

dipeptidyl-peptidase = settings: cited from earlier work
Source text: as §2

LH surge = settings: intracerebroventricular administration; cited from earlier work
Source text: as §2

[2] = parameters: species or system mice; settings: mouse, in vivo
Method: Mice were anesthetized with urethane and administered PACAP1-38 as an eye drop (1 × 10^6 cpm/eye in benzalkonium-chloride). Serum, whole brain, and eyes were collected 10 or 60 min after the eye drops were administered. The whole brain and eyes were washed in ice-cold PBS. Blood was allowed to clot, centrifuged at 5400× g for 10 min, and 50 μL of the serum obtained was added to 200 μL of 1% BSA in Lactated Ringers' (LR) solution. This mixture was added to 250 μL of 30% trichloroacetic acid, vortexed, and centrifuged for 10 min at 5400× g. Brains and eyes were homogenized separately in 0.5 mL of 1% BSA-LR with a bead beater for 30 s at 4800 rpm × 2 on ice. Samples were transferred to a microfuge tube and centrifuged at 10,000× g for 20 min and a portion of the resulting supernatant added to an equal volume of 30% trichloroacetic acid, vortexed, and centrifuged at 5400× g for 10 min. Resulting supernatant (S) and precipitate (P) from the serum, whole brain, and eyes were counted separately and the percent of radioactivity which could be precipitated with acid (% […]) was calculated using: % […] = 100(P)/(S + P). To correct for any degradation that might have occurred during the processing for acid precipitation, we added 125I-PACAP1-38 to non-radioactive arterial whole blood, whole brain, and eyes, and processed as above. Biological samples were corrected for degradation during processing by dividing their values by the processing control values.

[3] = system: retinal layers in BCCAO-induced retinal hypoperfusion; assay: Retina morphology and morphometry after permanent bilateral common carotid artery occlusion (BCCAO); format: in vivo, Wistar rats
Method: (§3) Wistar rats (n = 20:n = 12 for histological analysis, n = 8 for immunohistochemical analysis) weighing 250–300 g were subjected to permanent ligation of both common carotid arteries. The animals were bred and kept in the Animal Facility of the University of Pecs, Medical School. They were fed and watered ad libitum, under light/dark cycles of 12/12 h. All procedures were in accordance with institutional guidelines (ethical permission No: BA02/2000-31/2011, University of Pecs). Under isoflurane anesthesia, both common carotid arteries were exposed through a midline cervical incision and ligated with a 3-0 filament. Directly after the operation within 1 min, the right eye was treated with PACAP1-38 eye drops (1 µg/drop) (PACAP was synthesized at the Department of Medical Chemistry, University of Szeged, Szeged, Hungary). […] The left eye served as a control, treated only with the vehicle. A group of animals served as the sham-operated group that underwent anesthesia and all steps of the surgical procedure except ligation of the carotid arteries. Rats were treated twice a day with one drop, for 5 consecutive days.
Rats (n = 3 sham, n = 3 sham + PACAP1-38, n = 9 BCCAO, n = 9 BCCAO + PACAP1-38 retinas) were sacrificed with an overdose of anesthetic 2 weeks after BCCAO and eyes were processed for histological analysis. Histological analysis was performed as described previously. Briefly, removed retinas were dissected in phosphate buffered saline (PBS), fixed in 4% paraformaldehyde dissolved in 0.1 M phosphate buffer (PB), embedded in Durcupan ACM resin, and two-µm-thick sections were stained with toluidine blue (Sigma, Budapest, Hungary). Four tissue blocks obtained from at least three rats were prepared and central retinal areas within 1 mm from the optic nerve were used (n = 5 measurements from one tissue block). The following parameters were measured on digital photographs taken with a Nikon Eclipse camera using the Spot program: cross-section from the outer limiting membrane (OLM) to the inner limiting membrane (ILM), and width of all retinal layers (outer nuclear layer-ONL, outer plexiform layer-OPL, inner nuclear layer-INL, inner plexiform layer-IPL). We also counted the number of cells in the ganglion cell layer (GCL). Results are presented as mean ± SEM. Statistical comparisons were made using the two-way ANOVA followed by Fischer’s post hoc analysis.

[4] = mouse, in vivo
[5] = system: Müller glial cells (GFAP); assay: GFAP immunohistochemistry of Müller glial cell activation after BCCAO; format: in vivo, Wistar rats; settings: BCCAO rats, eye drops 1 µg/drop twice a day for 5 days, 2 weeks after ischemia, n = 4; p < 0.05
Method: as §3, with “Rats were treated twice a day with one drop, for 5 consecutive days.” left out
For immunohistochemical analysis, 2 weeks after the induction of ischemia, animals (n = 4 sham, n = 4 sham + PACAP1-38 and n = 4 BCCAO; n = 4 BCCAO + PACAP1-38 retinas) were sacrificed with 120 mg/kg pentobarbital (Nembutal, Sanofi-Phylaxia, Budapest, Hungary). […] Digital photographs were taken with a Nikon Eclipse Ci fluorescence microscope. […]

ischemic retinal lesion = settings: cited from earlier work
Source text: as §1

[6] = system: ocular barriers and retinal lesion; settings: eye drops dissolved in benzalkonium-chloride; cited from earlier work
Source text: The present results are in accordance with our recent observations with PACAP1-27 eye drops.

Substance: PACAP6-38: PACAP receptor antagonist (FTDSYSRYRKQMAVKKYLAAVLGKRYKQRVKNK; ends and bridges not checked; UniProt P18509 137-169, looked up, fragment)
- retinoprotection in monosodium glutamate-induced excitotoxic lesions [1]: further increased the excitotoxic damage

Substance: pituitary adenylate cyclase activating polypeptide [PACAP1-38]
- viability of retinoblastoma cells (retinoblastoma cells): reduced viability
- metabolic stability in the serum against dipeptidyl-peptidase (dipeptidyl-peptidase): rapidly degraded in the serum by dipeptidyl-peptidase
- effect on LH surge (LH surge): inhibition of the LH surge
- Percentage of acid precipitation, Whole Brain, 10 min [2]: 104.71 ± 17.72%
- Percentage of acid precipitation, Whole Brain, 60 min [2]: 75.09 ± 41.13%
- intact peptide in the eye [2]: about 50%
- retinoprotection in monosodium glutamate-induced excitotoxic lesions [1]: same degree of retinoprotection
- OLM–ILM (outer limiting membrane–inner limiting membrane) distance, reduction compared to sham controls ([3]; BCCAO rats, eye drops 1 µg/drop in 0.005% benzalkonium-chloride, twice a day for 5 days, 2 weeks after ligation, BCCAO vehicle eye 49.7%, p < 0.001, n = 9 retinas): 40.6%
- outer nuclear layer (ONL) thickness, reduction ([3]; as E1, BCCAO vehicle eye 36.5%, no statistically significant attenuation): 37.7%
- inner nuclear layer (INL) thickness, reduction ([3]; as E1, BCCAO vehicle eye 38.5%, p < 0.001): 30.5%
- number of cells in the ganglion cell layer (GCL), decrease ([3]; as E1, BCCAO vehicle eye 52.4%, p < 0.05): 25.9%
- outer plexiform layer (OPL) thickness, reduction ([3]; as E1, BCCAO vehicle eye 53.0%, no statistically significant attenuation): 48.2%
- inner plexiform layer (IPL) thickness, reduction ([3]; as E1, BCCAO vehicle eye 64.8%, p < 0.05): 38.2%
- effect on retinal layers in sham animals ([3]; sham-operated rats, eye drops 1 µg/drop in benzalkonium, n = 3): did not result in changes in any of the retinal layers
- clearance into the blood stream (serum) [4]: increased clearance into the blood stream after 120 min
- detection of radioactivity after ocular application [4]: present in the eye, the brain, and the serum five minutes after application
- level in the whole brain, time course [4]: detected after 5 min in the whole brain (Figure 4D) and levels remained stable throughout the observation time
- transport across the cornea, time course [4]: increasing transport across the cornea over the time course of the study
- uptake in the retina, time course [4]: increased to 30 min and plateaued
- GFAP upregulation in Müller glial cells [5]: attenuated the GFAP upregulation

Substance: secretin
- protective effects in ischemic retinal lesion (ischemic retinal lesion): do not exert protective effects

Substance: glucagon
- protective effects in ischemic retinal lesion (ischemic retinal lesion): do not exert protective effects

Substance: PACAP1-27: the shorter biologically active form of PACAP [reference compound]
- viability of retinoblastoma cells (retinoblastoma cells): negligible effects
- metabolic stability in the serum against dipeptidyl-peptidase (dipeptidyl-peptidase): more stable due to the resistance against dipeptidyl-peptidase reaction
- effect on LH surge (LH surge): opposite reaction
- retinoprotection in monosodium glutamate-induced excitotoxic lesions [1]: same degree of retinoprotection
- passage through ocular barriers and effect on retinal lesion [6]: passes through the mouse ocular barriers from the corneal surface to the retina, and ameliorates the retinal lesion

Substance: VIP: the peptide with the closest structural similarity to PACAP
- concentration needed for the same degree of protection as PACAP in ischemic retinopathy (ischemic retinal lesion): ten times higher

Substance: 125I-PACAP1-38: PACAP1-38 labeled with 125I using the lactoperoxidase method
- Percentage of acid precipitation, Eye, 10 min [2]: 52.73 ± 2.35%
- Percentage of acid precipitation, Eye, 60 min [2]: 48.24 ± 3.39%
- Percentage of acid precipitation, Serum, 10 min [2]: 25.57 ± 25.57%
- Percentage of acid precipitation, Serum, 60 min [2]: 0 ± 0%
- Percentage of acid precipitation, Whole Brain, 10 min [2]: 104.71 ± 17.72%
- Percentage of acid precipitation, Whole Brain, 60 min [2]: 75.09 ± 41.13%
- degradation in the serum after ocular administration [2]: almost completely degraded by 5 min

Substance: PACAP6-27: PACAP receptor antagonist (FTDSYSRYRKQMAVKKYLAAVL; ends and bridges not checked; UniProt P18509 137-158, looked up, fragment)
- retinoprotection in monosodium glutamate-induced excitotoxic lesions [1]: further increased the excitotoxic damage

Substance: pituitary adenylate cyclase activating polypeptide [PACAP]
- serum and brain levels in comparison to ocular levels [4]: negligible in comparison to ocular levels

From publication PMC5372685, “Passage through the Ocular Barriers and Beneficial Effects in Retinal Ischemia of Topical Application of PACAP1-38 in Rodents” (International Journal of Molecular Sciences, 2017)
